Source: article PMC10515640, “Structure-Based Optimization of Covalent, Small-Molecule Stabilizers of the 14-3-3σ/ERα Protein–Protein Interaction from Nonselective Fragments” (Journal of the American Chemical Society, 2023)
Like-named read-outs stand apart in the source and are kept apart here.

Key:
14-3-3σ = molecular target: T1, 14-3-3σ (Homo sapiens, UniProt P31947); test: Mass spectrometry dose response, compound binding to 14-3-3σ in the absence of peptide (apo); settings: 100 nM compound, 100 nM 14-3-3σ
T1 construct: The 14-3-3 σ isoform (full-length for mass spectrometry and fluorescence anisotropy assays, ΔC for crystallography); made in house; host or cells: E. coli Rosetta 2(DE3)pLysS, pPROEX HTb vector
T1 sequence (P31947 1-248): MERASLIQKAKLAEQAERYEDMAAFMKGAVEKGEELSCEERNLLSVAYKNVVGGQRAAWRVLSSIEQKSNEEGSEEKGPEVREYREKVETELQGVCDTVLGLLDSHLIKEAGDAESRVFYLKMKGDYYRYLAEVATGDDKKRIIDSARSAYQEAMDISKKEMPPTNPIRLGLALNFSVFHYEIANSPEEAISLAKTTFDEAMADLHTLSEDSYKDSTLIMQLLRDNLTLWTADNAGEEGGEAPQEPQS
Summary of the method: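 Covalent binding of compounds to Cys38 of full-length wild type human 14-3-3σ (100 nM) was measured by LC-MS without peptide present. Compounds from 50 mM DMSO stocks were serially diluted 3-fold and 1000 nl transferred to plates in TRIS buffer (10 mM, pH 8.0), 50 μl per well. Samples were desalted on a BEH-C4 column and analysed on a Xevo G2-XS Q-Tof at several time points.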

14-3-3σ/ERα [1] = molecular target: T2, 14-3-3σ/ERα (Homo sapiens, UniProt P03372+P31947); test: Mass spectrometry dose response, compound binding to 14-3-3σ in the presence of ERα phosphopeptide; settings: 100 nM compound, 100 nM 14-3-3σ, ERα-peptide 2 µM
T2 construct: The 14-3-3 σ isoform (full-length for mass spectrometry and fluorescence anisotropy assays, ΔC for crystallography); made in house; host or cells: E. coli Rosetta 2(DE3)pLysS, pPROEX HTb vector
Summary of the method: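 Covalent labeling of Cys38 on 14-3-3σ was tracked by LC-MS on a Waters Acquity UPLC/Xevo G2-XS Q-Tof, with samples desalted on a Protein BEH-C4 column. Full-length wild type 14-3-3σ (100 nM) plus ERα phosphopeptide was mixed with compound in 10 mM TRIS, pH 8.0, at 50 μl per well. Percent bound was measured at several time points.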

14-3-3σ/C-RAF [2] = molecular target: T3, 14-3-3σ/C-RAF (Homo sapiens, UniProt P31947); test: Mass spectrometry dose response, compound binding to 14-3-3σ in the presence of C-RAF phosphopeptide; settings: 100 nM compound, 100 nM 14-3-3σ, C-RAF peptide 18 µM
T3 construct: The 14-3-3 σ isoform (full-length for mass spectrometry and fluorescence anisotropy assays, ΔC for crystallography); made in house; host or cells: E. coli Rosetta 2(DE3)pLysS, pPROEX HTb vector
T3 sequence (P31947 1-248): T1 sequence (P31947 1-248)
Summary of the method: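 Covalent binding of compounds to the native Cys38 of 14-3-3σ was monitored by LC-MS on a Waters Acquity UPLC/Xevo G2-XS Q-Tof, with samples desalted on a BEH-C4 column. Full-length wild type 14-3-3σ (100 nM) with C-RAF peptide in TRIS buffer (10 mM, pH 8.0) was incubated with compound dose series at room temperature.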

14-3-3σ/ERα [3] = molecular target: T2, 14-3-3σ/ERα; test: Fluorescence anisotropy compound titration, FAM-labeled ERα peptide; type: binding; settings: 10 nM ERα-FAM labeled peptide, 1 µM 14-3-3σ, overnight incubation (24 h)
Summary of the method: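 Fluorescence anisotropy compound titration measuring stabilization of the 14-3-3σ/ERα interaction: compounds were titrated in a 2-fold dilution series (starting at 500 or 1000 µM) into a mix of 10 nM fluorescein-labeled ERα peptide and 1 µM 14-3-3σ (about EC25 of the complex) in HEPES buffer with 1% DMSO, read after overnight incubation at room temperature; EC50 from 4PL fitting.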

14-3-3σ/ERα [4] = molecular target: T2, 14-3-3σ/ERα; test: as above; settings: labeling in MS assay, peptide binding in FA assay
14-3-3σ/C-RAF [5] = molecular target: T3, 14-3-3σ/C-RAF; test: Fluorescence anisotropy compound titration, FAM-labeled C-RAF peptide; type: binding; settings: 10 nM C-RAF-FAM labeled peptide, 5 µM 14-3-3σ, overnight incubation; read-out: EC50 value C-RAF (FA compound titration)
Summary of the method: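 A fluorescence anisotropy compound titration measured how compounds stabilize binding of 14-3-3σ to a fluorescein-labeled C-RAF peptide. Compounds were diluted 2-fold, from 500 or 1000 µM, into 10 nM labeled peptide with 5 µM 14-3-3σ, roughly its EC25, in HEPES buffer with 1% DMSO. Plates were read after overnight incubation at room temperature. EC50 values came from 4PL fits over three independent experiments.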

14-3-3σ/ERα [6] = molecular target: T2, 14-3-3σ/ERα; test: Fluorescence anisotropy protein titration, FAM-labeled ERα peptide; type: binding; settings: 10 nM FAM-ERα peptide
Protocol: To evaluate compound-mediated stabilization of the 14-3-3σ/ERα complex directly, FA protein titrations were performed at a saturating concentration of compound. FA protein titrations allowed the quantification of the cooperative effect by comparing the apparent dissociation constants (appKD) of the binary and ternary complexes. 14-3-3σ was titrated into 10 nM FAM-labeled ERα peptide in the presence of DMSO or 100 μM of the compounds (Table S4). […]
diluted in buffer (10 mM HEPES, pH 7.5, 150 mM NaCl, 0.1% Tween20, 1 mg/mL Bovine Serum Albumin (BSA; Sigma-Aldrich). Final DMSO in the assay was always 1%. […]
Protein titrations were made by titrating 14-3-3σ in a 2-fold dilution series (starting at 300 µM) to a mix of fluorescein-labeled peptide (10 nM) and DMSO or compound (100 µM). Fluorescence anisotropy measurements were performed after overnight incubation at room temperature. […]
Wells containing only FAM-peptide were used to set as G-factor at 35 mP. Data reported are at endpoint. EC50 and apparent Kd values were obtained from fitting the data with a four-parameter logistic model (4PL) in GraphPad Prism 7 for Windows. Data was obtained and averaged based on either three (compound titrations) or two (protein titrations) independent experiments.

14-3-3σ/C-RAF [7] = molecular target: T3, 14-3-3σ/C-RAF; test: Fluorescence anisotropy compound titration, FAM-labeled C-RAF peptide; type: binding; settings: MS and FA assays; abstract: up to 150 μM compound
[8] = read-out: EC50 value ERα (FA compound titration)

EC50 (14-3-3σ/ERα [3]; [8]) [µM]	EC50 (14-3-3σ/C-RAF [5]) [µM]	X Fold stabilization (100 µM compound) of 14-3-3σ/ERα (14-3-3σ/ERα [6]; versus DMSO reference) [fold]	Kd (14-3-3σ/ERα [6]; 100 µM compound, overnight incubation) [nM]	stabilization of 14-3-3σ/C-RAF (in words) (14-3-3σ/C-RAF [7])	SMILES	Percentage (%) bound of compound to 14-3-3σ, APO 1h (14-3-3σ) [%]	Percentage (%) bound of compound to 14-3-3σ, APO 8h (14-3-3σ) [%]	Percentage (%) bound of compound to 14-3-3σ, APO 16h (14-3-3σ) [%]	Percentage (%) bound of compound to 14-3-3σ, APO 24h (14-3-3σ) [%]	Percentage (%) bound of compound to 14-3-3σ, ERα 1h (14-3-3σ/ERα [1]) [%]	Percentage (%) bound of compound to 14-3-3σ, ERα 8h (14-3-3σ/ERα [1]) [%]	Percentage (%) bound of compound to 14-3-3σ, ERα 16h (14-3-3σ/ERα [1]) [%]	Percentage (%) bound of compound to 14-3-3σ, ERα 24h (14-3-3σ/ERα [1]) [%]	Percentage (%) bound of compound to 14-3-3σ, CRAF 1h (14-3-3σ/C-RAF [2]) [%]	Percentage (%) bound of compound to 14-3-3σ, CRAF 8h (14-3-3σ/C-RAF [2]) [%]	Percentage (%) bound of compound to 14-3-3σ, CRAF 24h (14-3-3σ/C-RAF [2]; 24h) [%]	Percentage (%) bound of compound to 14-3-3σ, CRAF 24h (14-3-3σ/C-RAF [2]; head prints 24h) [%]	activity in MS and FA assays (in words) (14-3-3σ/ERα [4])	EC50 (14-3-3σ/ERα [3]; EC50 value ERα (FA compound titration)) [µM]
2 ± 0.3	> 150	30	49	no stabilization	O=C(CCl)NCC1CCN(C(=O)C2(Nc3ccc(Cl)cc3)CCNCC2)CC1 [compound 131]	1.4	2.2	5.8	14.1	54.4	82.2	94.0	98.3	2.0	2.4	12.5	4.6		
					C=CS(=O)(=O)NCC1CCN(C(=O)C2(Nc3ccc(Cl)cc3)CCOCC2)CC1 [compound 155]	0	0.7	4.6	31.4	0.6	1.5	5.9	14.1	0	0	1.0	0	inactive	> 150
8 ± 1	> 150			no stabilization	NC1CCC(Nc2ccc(Cl)cc2)(C(=O)N2CCC(CNC(=O)CCl)CC2)CC1 (stereo not drawn) [compound 137]	1.4	1.9	3.2	9.3	36.3	60.4	90.0	96.4	1.7	3.6	10.4	6.6		

SMILES	EC50 (14-3-3σ/ERα [3]; [8]) [µM]	EC50 (14-3-3σ/C-RAF [5]) [µM]	X Fold stabilization (100 µM compound) of 14-3-3σ/ERα (14-3-3σ/ERα [6]; versus DMSO reference) [fold]	Kd (14-3-3σ/ERα [6]; 100 µM compound, overnight incubation) [nM]	stabilization of 14-3-3σ/C-RAF (in words) (14-3-3σ/C-RAF [7])	Percentage (%) bound of compound to 14-3-3σ, APO 1h (14-3-3σ) [%]	Percentage (%) bound of compound to 14-3-3σ, APO 8h (14-3-3σ) [%]	Percentage (%) bound of compound to 14-3-3σ, APO 16h (14-3-3σ) [%]	Percentage (%) bound of compound to 14-3-3σ, APO 24h (14-3-3σ) [%]	Percentage (%) bound of compound to 14-3-3σ, ERα 1h (14-3-3σ/ERα [1]) [%]	Percentage (%) bound of compound to 14-3-3σ, ERα 8h (14-3-3σ/ERα [1]) [%]	Percentage (%) bound of compound to 14-3-3σ, ERα 16h (14-3-3σ/ERα [1]) [%]	Percentage (%) bound of compound to 14-3-3σ, ERα 24h (14-3-3σ/ERα [1]) [%]	Percentage (%) bound of compound to 14-3-3σ, CRAF 1h (14-3-3σ/C-RAF [2]) [%]	Percentage (%) bound of compound to 14-3-3σ, CRAF 8h (14-3-3σ/C-RAF [2]) [%]	Percentage (%) bound of compound to 14-3-3σ, CRAF 24h (14-3-3σ/C-RAF [2]; 24h) [%]	Percentage (%) bound of compound to 14-3-3σ, CRAF 24h (14-3-3σ/C-RAF [2]; head prints 24h) [%]	activity in MS and FA assays (in words) (14-3-3σ/ERα [4])	EC50 (14-3-3σ/ERα [3]; EC50 value ERα (FA compound titration)) [µM]
CC(C)(Nc1ccccc1)C(=O)N1CCC(CNC(=O)CCl)CC1 [compound 85]	> 150					0	0	0	0	0.9	1.2	1.5	1.5	0.9	1.2	1.5	1.5	inactive	
